Results as given in ChEMBL document CHEMBL4020806, “Evaluation of the antiprotozoan properties of 5'-norcarbocyclic pyrimidine nucleosides” (Bioorg Med Chem Lett, 2017).

How the values were obtained:
Format in all cases: functional
Trypanosoma brucei [1] = assay: Antiprotozoal activity against bloodstream form of multi-drug resistant Trypanosoma brucei B48 after 16 hrs by Alamar Blue assay; settings: B48, 16 h
Trypanosoma brucei [2] = assay: Antiprotozoal activity against bloodstream form of wild type Trypanosoma brucei after 16 hrs by Alamar Blue assay
Trypanosoma brucei [3] = assay: Resistance factor, ratio of EC50 for multi-drug resistant Trypanosoma brucei B48 to EC50 for wild type Trypanosoma brucei
Leishmania mexicana [4] = assay: Antileishmanial activity against wild type Leishmania mexicana after 16 hrs by Alamar Blue assay
Leishmania mexicana [5] = assay: Resistance factor, ratio of EC50 for 5FU resistant Leishmania mexicana to EC50 for wild type Leishmania mexicana
Trypanosoma brucei [6] = assay: Resistance factor, ratio of EC50 for PYR6-5 deficient bloodstream form of 5-FU hypersensitive Trypanosoma brucei to EC50 for wild type Trypanosoma brucei
Trypanosoma brucei [7] = assay: Resistance factor, ratio of EC50 for 5FU resistant Trypanosoma brucei to EC50 for wild type Trypanosoma brucei
Trypanosoma brucei [8] = assay: Antiprotozoal activity against PYR6-5 deficient bloodstream form of 5-FU hypersensitive Trypanosoma brucei after 16 hrs by Alamar Blue assay
Trypanosoma brucei [9] = assay: Antiprotozoal activity against bloodstream form of 5FU resistant Trypanosoma brucei after 16 hrs by Alamar Blue assay
Leishmania mexicana [10] = assay: Antileishmanial activity against 5FU resistant Leishmania mexicana after 16 hrs by Alamar Blue assay

Row | Structure (SMILES) | EC50 (Trypanosoma brucei [1]) | EC50 (Trypanosoma brucei [2]) | Ratio EC50 (Trypanosoma brucei [3]) | EC50 (Leishmania mexicana [4]) | Ratio EC50 (Leishmania mexicana [5]) | Ratio EC50 (Trypanosoma brucei [6]) | Ratio EC50 (Trypanosoma brucei [7]) | EC50 (Trypanosoma brucei [8]) | EC50 (Trypanosoma brucei [9]) | EC50 (Leishmania mexicana [10])
1 | N#Cc1cccc(C(=O)O[C@@H]2C=C[C@H](n3ccc(=O)[nH]c3=O)C2)c1 | 36.4 µM | 37.8 µM | 1 | 94.7 µM | 1.02 | 0.92 | 0.83 | 34.9 µM | 31.3 µM | 96.3 µM
2 | Cc1cc(=O)n(C(=O)c2ccccc2)c(=O)n1[C@H]1C=C[C@@H](OC(=O)c2ccccc2)C1 | 34 µM | 33.1 µM | 1 | 26.1 µM | 0.86 | 0.98 | 0.84 | 32.3 µM | 27.7 µM | 22.6 µM
3 | O=c1[nH]cc(F)c(=O)[nH]1 [FLUOROURACIL] | 74.6 µM | 66 µM | 1.1 | 7.7 µM | 322 | 0.034 | 59.17 | 2.3 µM | 3900 µM | 2470 µM
4 | N=C(N)c1ccc(OCCCCCOc2ccc(C(=N)N)cc2)cc1 [PENTAMIDINE] | 0.938 µM | 0.0057 µM | 164 | 1.9 µM | 0.86 | 0.89 | 1.06 | 0.0051 µM | 0.0061 µM | 1.63 µM
5 | Cc1cc(C)cc(C(=O)O[C@@H]2C=C[C@H](n3ccc(=O)n(C(=O)c4cc(C)cc(C)c4)c3=O)C2)c1 | 21.9 µM | 23.8 µM | 0.9 | 38.9 µM | 0.61 | 1.03 | 0.85 | 24.4 µM | 20.2 µM | 23.6 µM
6 | Cc1ccc(Nc2cn([C@H]3C=C[C@@H](O)C3)c(=O)[nH]c2=O)cc1 | 31 µM | 31.7 µM | 1 | 94.6 µM | 1.02 | 0.78 | 0.54 | 24.7 µM | 17.1 µM | 96.7 µM
7 | CCCCCCCCCCCCC#Cc1cn([C@H]2C=C[C@@H](O)C2)c(=O)n([C@H]2C=C[C@@H](O)C2)c1=O | 9 µM | 8 µM | 1.1 | 11.8 µM | 0.97 | 1.15 | 0.94 | 9.2 µM | 7.5 µM | 11.4 µM
8 | O=C(O[C@@H]1C=C[C@H](n2cc(Br)c(=O)[nH]c2=O)C1)c1ccccc1 | 23.9 µM | 29.8 µM | 0.8 | 90.4 µM | 1.02 | 0.85 | 0.59 | 25.3 µM | 17.7 µM | 91.9 µM
9 | Cc1cc(=O)[nH]c(=O)n1[C@H]1C=C[C@@H](OC(=O)c2ccccc2)C1 | 38.1 µM | 37.6 µM | 1 | 94.1 µM | 1.01 | 0.91 | 0.85 | 34.3 µM | 32 µM | 94.9 µM
10 | O=C(O[C@@H]1C=C[C@H](n2ccc(=O)n(Cc3ccccc3)c2=O)C1)c1ccccc1 | 25.5 µM | 29.1 µM | 0.9 | 34.5 µM | 1.34 | 0.95 | 0.72 | 27.7 µM | 21 µM | 46.3 µM
11 | Cc1cc(=O)[nH]c(=O)n1[C@H]1C=C[C@@H](O)C1 | 38.7 µM | 35.1 µM | 1.1 | 97.7 µM | 1.04 | 0.92 | 0.82 | 32.2 µM | 28.8 µM | 102 µM
